Results published in ChEMBL document CHEMBL4351032, “Design, synthesis, and biological evaluation of 4-((6,7-dimethoxyquinoline-4-yl)oxy)aniline derivatives as FLT3 inhibitors for the treatment of acute myeloid leukemia” (Bioorg Med Chem Lett, 2019).

Assays:
[1] = biological target: T1, Receptor-type tyrosine-protein kinase FLT3 (Homo sapiens, UniProt P36888); test: Inhibition of FLT3 (unknown origin)
T1 sequence (P36888 whole entry): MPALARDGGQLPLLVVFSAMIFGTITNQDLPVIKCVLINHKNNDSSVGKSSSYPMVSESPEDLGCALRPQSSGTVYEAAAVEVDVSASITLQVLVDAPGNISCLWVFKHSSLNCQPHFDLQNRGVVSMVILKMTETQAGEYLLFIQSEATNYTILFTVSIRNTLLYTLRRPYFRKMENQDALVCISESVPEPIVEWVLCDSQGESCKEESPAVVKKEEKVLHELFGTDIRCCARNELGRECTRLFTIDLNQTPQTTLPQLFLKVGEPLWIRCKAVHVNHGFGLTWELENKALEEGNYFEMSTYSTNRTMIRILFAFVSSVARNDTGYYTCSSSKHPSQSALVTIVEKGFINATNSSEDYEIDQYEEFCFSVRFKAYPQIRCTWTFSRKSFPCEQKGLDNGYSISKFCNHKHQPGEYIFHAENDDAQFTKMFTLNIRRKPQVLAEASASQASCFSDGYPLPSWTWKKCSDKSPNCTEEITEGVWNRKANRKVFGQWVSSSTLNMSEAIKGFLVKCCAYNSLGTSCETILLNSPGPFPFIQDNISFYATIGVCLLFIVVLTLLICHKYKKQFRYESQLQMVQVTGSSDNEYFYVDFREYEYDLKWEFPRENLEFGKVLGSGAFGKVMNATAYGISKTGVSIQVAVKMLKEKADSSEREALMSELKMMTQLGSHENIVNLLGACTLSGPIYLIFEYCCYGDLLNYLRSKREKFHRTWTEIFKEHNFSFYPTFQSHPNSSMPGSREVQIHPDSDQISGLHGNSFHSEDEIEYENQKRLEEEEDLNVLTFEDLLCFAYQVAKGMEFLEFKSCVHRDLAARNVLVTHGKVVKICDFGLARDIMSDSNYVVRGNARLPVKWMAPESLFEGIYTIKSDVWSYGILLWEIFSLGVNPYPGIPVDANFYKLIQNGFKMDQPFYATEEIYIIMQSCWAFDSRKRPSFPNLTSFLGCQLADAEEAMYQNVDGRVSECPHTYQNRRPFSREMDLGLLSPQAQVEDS

HL-60 [2] = test: Antiproliferative activity against human HL60 cells harboring wild type FLT3 assessed as inhibition of cell growth incubated for 72 hrs by CCK-8 assay; format: functional, cell-based; conditions: HL-60, 72 h
MV4-11 = test: Antiproliferative activity against human MV4-11 cells harboring FLT3-ITD assessed as inhibition of cell growth incubated for 72 hrs by CCK-8 assay; format: functional, cell-based; conditions: MV4-11, 72 h
[3] = biological target: T1, Receptor-type tyrosine-protein kinase FLT3; test: Inhibition of FLT3 (unknown origin) using peptide as substrate preincubated with enzyme for 10 mins followed by substrate addition further incubated for 1 hr by mobility shift assay
HL-60 [4] = test: Potency index, ratio of cabozantinib IC50 to compound IC50 for human HL60 cells incubated for 72 hrs by CCK-8 assay; format: functional

| Structure (SMILES) | IC50 [1] [µM] | IC50 (HL-60 [2]) [µM] | IC50 (MV4-11) [µM] | IC50 [3] [µM] | Ratio IC50 (HL-60 [4]) |
| --- | --- | --- | --- | --- | --- |
| COc1cc2c(Oc3ccc(NC(=O)c4nn(-c5ccccc5)c(=O)cc4C)cc3F)ccnc2cc1OCCCN1CCOCC1 | 0.00928 |  |  |  |  |
| COc1cc2nccc(Oc3ccc(N/C(=N/c4ccc(F)cc4)C(F)(F)F)cc3)c2cc1OC |  | 48.9 |  |  |  |
| COc1ccc(/N=C(/Nc2ccc(Oc3ccnc4cc(OC)c(OC)cc34)cc2)C(F)(F)F)cc1 |  | 36.2 |  |  |  |
| COc1cc2nccc(Oc3ccc(NC(=O)N/N=C/c4cn(-c5ccccc5Br)nn4)cc3)c2cc1OC |  | > 50 | > 50 |  |  |
| COc1cccc(-n2cc(/C=N/NC(=O)Nc3ccc(Oc4ccnc5cc(OC)c(OC)cc45)cc3)nn2)c1 |  | 18.8 | 13.8 | > 1 |  |
| COc1cc2nccc(Oc3ccc(NC(=O)N/N=C/c4cn(-c5cccc(Cl)c5)nn4)cc3)c2cc1OC |  | 21.1 | 13.4 | > 1 |  |
| COc1cc2nccc(Oc3ccc(N/C(=N/c4ccc(C)cc4)C(F)(F)F)cc3)c2cc1OC |  | 46.2 |  |  |  |
| COc1cc2nccc(Oc3ccc(NC(=O)N/N=C/c4cn(-c5cccc(F)c5)nn4)cc3)c2cc1OC |  | 8.91 | 5.8 | 0.384 | 2.52 |
| COc1cc2nccc(Oc3ccc(N/C(=N/c4ccc(Cl)c(C(F)(F)F)c4)C(F)(F)F)cc3)c2cc1OC |  | > 50 |  |  |  |
| COc1cc2nccc(Oc3ccc(N/C(=N/c4ccc([N+](=O)[O-])cc4)C(F)(F)F)cc3)c2cc1OC |  | > 50 |  |  |  |
| COc1cc2nccc(Oc3ccc(N/C(=N/c4cccc(Cl)c4)C(F)(F)F)cc3)c2cc1OC |  | > 50 |  |  |  |
| COc1cc2nccc(Oc3ccc(N/C(=N/c4cccc(C(F)(F)F)c4)C(F)(F)F)cc3)c2cc1OC |  | > 50 |  |  |  |
| COc1cc2nccc(Oc3ccc(NC(=O)N/N=C/c4cn(-c5ccc(F)cc5)nn4)cc3)c2cc1OC |  | 21.7 | 21.4 |  |  |
| COc1cc2nccc(Oc3ccc(N/C(=N/c4ccc(Cl)c(Cl)c4)C(F)(F)F)cc3)c2cc1OC |  | > 50 |  |  |  |
| COc1cc2nccc(Oc3ccc(NC(=O)N/N=C/c4cn(-c5cccc(C(F)(F)F)c5)nn4)cc3)c2cc1OC |  | > 50 | 49.1 |  |  |
| COc1cc2nccc(Oc3ccc(NC(=O)N/N=C/c4cn(-c5ccccc5Cl)nn4)cc3)c2cc1OC |  | > 50 | 48.4 |  |  |
| COc1cc2nccc(Oc3ccc(NC(=O)N/N=C/c4cn(-c5cccc(C)c5)nn4)cc3)c2cc1OC |  | 25.7 | 19.3 |  |  |
| COc1cc2nccc(Oc3ccc(NC(=O)N/N=C/c4cn(-c5ccccc5F)nn4)cc3)c2cc1OC |  | 16.4 | 13.6 | > 1 |  |
| COc1cc2nccc(Oc3ccc(N/C(=N/c4ccc(OC(F)(F)F)cc4)C(F)(F)F)cc3)c2cc1OC |  | 32.7 |  |  |  |
| COc1cc2nccc(Oc3ccc(NC(=O)N/N=C/c4cn(-c5ccccc5OC)nn4)cc3)c2cc1OC |  | 14.2 | 8.29 | 0.312 |  |
| COc1cc2nccc(Oc3ccc(N/C(=N/c4ccccc4)C(F)(F)F)cc3)c2cc1OC |  | 44.6 |  |  |  |
| COc1ccc(-n2cc(/C=N/NC(=O)Nc3ccc(Oc4ccnc5cc(OC)c(OC)cc45)cc3)nn2)cc1 |  | 19.3 | 16.3 |  |  |
| COc1cc2nccc(Oc3ccc(NC(=O)N/N=C/c4cn(-c5ccccc5)nn4)cc3)c2cc1OC |  | 41.3 | 38.7 |  |  |
| COc1cc2nccc(Oc3ccc(NC(=O)C4(C(=O)Nc5ccc(F)cc5)CC4)cc3)c2cc1OC [CABOZANTINIB] |  | 22.5 | 15.2 |  |  |
